Laboratory results reported in US7799809B2, “Carboxamide compounds and their use as calpain inhibitors” (Abbott GmbH & Co. KG, priority 2006, dated 2010).

Experiments:
Format in all cases: biochemical
cathepsin K = target: T1, cathepsin K (Homo sapiens, UniProt P43235); assay: Cathepsin K enzyme inhibition in vitro (kinetic fluorescence assay); settings: cathepsin K activated from recombinant human procathepsin K vs calpain I
T1 construct: purchased Calbiochem 342001; host or cells: E. coli
T1 sequence (P43235 115-329): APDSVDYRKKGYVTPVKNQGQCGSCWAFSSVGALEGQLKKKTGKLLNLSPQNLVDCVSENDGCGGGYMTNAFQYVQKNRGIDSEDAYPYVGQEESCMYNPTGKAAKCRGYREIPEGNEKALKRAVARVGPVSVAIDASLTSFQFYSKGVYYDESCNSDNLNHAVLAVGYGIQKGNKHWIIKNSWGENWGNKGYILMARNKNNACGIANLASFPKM
Method: (§1) The following solutions and buffers were employed: • HBS (for 40 ml): 800 μl M HEPES; 2.16 ml 100 mM KCl; 4.8 ml 1M NaCl; 3.59 ml 5% glucose; 60 μl μM MgSO4; 400 μl 100 mM Na pyruvate, 28.19 ml water; pH 7.2-7.5. • lysis buffer (for 20 ml): 400 μl M Tris pH 8.2; 2.74 ml 1M NaCl; 520 μl 0.5M EDTA; 2 ml 10% triton X-100; 0.8 ml (=1:25) CompletePlus (1 tablet/2 ml H2O); 200 μl 100 mM Pefabloc; 13.34 ml water, pH 8.2. • TBST (10×) (for 1 l): 100 mM Tris (12.1 g); 1.5M NaCl (87 g); 1% Tween 20 (10 g), adjusted to pH 8. I Enzyme Inhibition In Vitro: • Testing for blockade of the corresponding enzymic activities was carried out by means of kinetic fluorescence assays (excitation 390 nm, emission 460 nm). • Apparent Ki values were calculated from the experimentally determined IC50 values by the Cheng-Prussoff relation assuming a reversible competitive enzyme inhibition. The Km values of the substrates used under the assay conditions indicated above were: 90 μM (Z-Phe-Arg-AMC, cathepsin B), 10 μM (Z-Gly-Pro-Arg-AMC, cathepsin K), 2 μM (Z-Phe-Arg-AMC, cathepsin L), and 30 μM (Z-Val-Val-Arg-AMC, cathepsin S). • The indicated Ki values are averages of the inhibition constants calculated on the basis of 2 to 4 independent dose-effect plots.
(§2) The following assays were used: • 1. Calpain I: • 20 nM calpain-I—isolated from human erythrocytes (Calbiochem #208713), 100 μM Suc-Leu-Tyr-AMC (Bachem #1-1355) as substrate in buffer with 62 mM imidazole, 0.3 mM CaCl2, 0.10% CHAPS, 0.05% BSA, 1 mM DTT at pH 7.3 and room temperature. • 2. Cathepsin B: • 0.25 nM cathepsin B—isolated from human liver (Calbiochem #219362), 100 μM Z-Phe-Arg-AMC (Bachem #I-1160) as substrate 50 mM MES, 2 mM EDTA, 0.05% Brij 35, 2.5 mM L-cysteine, pH 6.0, room temperature. • 3. Cathepsin K: • 3 nM cathepsin K—activated from recombinant human procathepsin K from E. coli (Calbiochem #342001), 10 μM Z-Gly-Pro-Arg-AMC (Biomol #P-142) as substrate in 50 mM MES, 2 mM EDTA, 0.05% Brij 35, 2.5 mM L-cysteine, pH 6.0, room temperature. • 4. Cathepsin L: • 1 nM cathepsin L—isolated from human liver (Calbiochem #219402), 2 μM Z-Phe-Arg-AMC (Bachem #1-1160) as substrate in 50 mM MES, 2 mM EDTA, 0.05% Brij 35, 2.5 mM L-cysteine, pH 6.0, room temperature. • 5. Cathepsin S: • 0.5 nM recombinant human cathepsin S from E. coli (Calbiochem #219343), 20 μM Z-Val-Val-Arg-AMC (Bachem #1-1540) as substrate in 50 mM MES, 2 mM EDTA, 0.05% Brij 35, 2.5 mM L-cysteine, pH 6.0, room temperature. • The results of the in vitro determination are indicated in Table 1. The following abbreviations are used in Table 1: • The “Calpain activity” column, ++ stands for a calpain Ki (Ki(calpain)) of ≦40 nM and + means: 40 nM<Ki(Calpain)≦100 nM. • The “Sel. cat. B” column indicates the Ki(cathepsin B)/Ki(calpain) ratio. In this connection, ++ means a Ki(cathepsin B)/Ki(calpain) ratio of ≧30 and + means 10≦Ki(cathepsin B)/Ki(calpain)<30. • The “Sel. cat. K” column indicates the Ki(cathepsin K)/Ki(calpain) ratio. In this connection, ++ means a Ki(cathepsin K)/Ki(calpain) ratio of ≧30 and + means 10≦Ki(cathepsin K)/Ki(calpain)<30. • The “Sel. cat. L” column indicates the Ki(cathepsin L)/Ki(calpain) ratio. In this connection, ++ means a Ki(cathepsin L)/Ki(calpain) ratio of ≧50 and + means 30≦Ki(cathepsin L)/Ki(calpain)<50. • The “Sel. cat. S” column indicates the Ki(cathepsin S)/Ki(calpain) ratio. In this connection, ++ means a Ki(cathepsin S)/Ki(calpain) ratio of ≧100 and + means 50≦Ki(cathepsin S)/Ki(calpain)<100.

cathepsin S = target: T2, cathepsin S (Homo sapiens, UniProt P25774); assay: Cathepsin S enzyme inhibition in vitro (kinetic fluorescence assay); settings: recombinant human cathepsin S vs calpain I
T2 construct: purchased Calbiochem 219343; host or cells: E. coli
Procedure, shortened: (§3)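 Cathepsin B (0.25 nM, human liver) with 100 μM Z-Phe-Arg-AMC; L (1 nM, human liver) with 2 μM Z-Phe-Arg-AMC; S (0.5 nM, recombinant) with 20 μM Z-Val-Val-Arg-AMC. pH 6.0 MES buffer, 2.5 mM L-cysteine, room temperature. Kinetic fluorescence (ex 390/em 460 nm); apparent Ki from IC50 by Cheng-Prusoff.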

cathepsin B = target: T3, cathepsin B (Homo sapiens, UniProt P07858); assay: Cathepsin B enzyme inhibition in vitro (kinetic fluorescence assay); settings: cathepsin B isolated from human liver vs calpain I
T3 construct: cathepsin B—isolated from human liver (Calbiochem #219362); purchased Calbiochem 219362; host or cells: human liver (tissue-derived)
Method: as §1, §2

cathepsin L = target: T4, cathepsin L (Homo sapiens, UniProt P07711); assay: Cathepsin L enzyme inhibition in vitro (kinetic fluorescence assay); settings: cathepsin L isolated from human liver vs calpain I
T4 construct: cathepsin L—isolated from human liver (Calbiochem #219402); purchased Calbiochem 219402; host or cells: human liver (tissue-derived)
Procedure, shortened: as §3

T2 sequence (P25774 115-331): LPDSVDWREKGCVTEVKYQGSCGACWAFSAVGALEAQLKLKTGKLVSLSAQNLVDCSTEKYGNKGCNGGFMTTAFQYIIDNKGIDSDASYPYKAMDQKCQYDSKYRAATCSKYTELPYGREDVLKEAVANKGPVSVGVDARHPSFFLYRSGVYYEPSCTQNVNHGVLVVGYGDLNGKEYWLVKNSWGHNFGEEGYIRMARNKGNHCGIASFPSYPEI
T4 sequence (P07711 114-333): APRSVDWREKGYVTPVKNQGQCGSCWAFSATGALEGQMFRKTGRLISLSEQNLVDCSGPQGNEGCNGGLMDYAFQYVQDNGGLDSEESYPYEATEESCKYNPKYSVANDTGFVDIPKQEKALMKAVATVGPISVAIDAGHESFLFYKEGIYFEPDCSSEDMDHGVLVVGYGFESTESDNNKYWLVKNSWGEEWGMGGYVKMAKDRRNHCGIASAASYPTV

Row | Structure (SMILES) | Sel cat. K: Ki(cathepsin K)/Ki(calpain) ratio (cathepsin K) | Sel cat. S: Ki(cathepsin S)/Ki(calpain) ratio (cathepsin S) | Sel cat. B: Ki(cathepsin B)/Ki(calpain) ratio (cathepsin B) | Sel cat. L: Ki(cathepsin L)/Ki(calpain) ratio (cathepsin L)
1 | NC(=O)C(=O)C(Cc1ccccc1)NC(=O)c1cccnc1-n1ccc(-c2cccc(N3CCCC3)c2)n1 (stereo not shown) [Example 74, N-(3-Amino-1-benzyl-2,3-dioxopropyl)-2-[3-(3-pyrrolidin-1-ylphenyl)-1H-pyrazol-1-yl]nicotinamide] | ++ (++ means a Ki(cathepsin K)/Ki(calpain) ratio of ≧30) | ++ (++ means a Ki(cathepsin S)/Ki(calpain) ratio of ≧100) | ++ (++ means a Ki(cathepsin B)/Ki(calpain) ratio of ≧30) | 
2 | NC(=O)C(=O)C(Cc1ccccc1)NC(=O)c1cc(Cl)cnc1-n1ccc(-c2ccccc2)n1 (stereo not shown) [Example 27, N-(3-Amino-1-benzyl-2,3-dioxopropyl)-5-chloro-2-(3-phenyl-1H-pyrazol-1-yl)nicotinamide] | + (+ means 10≦Ki(cathepsin K)/Ki(calpain)<30) |  | ++ (++ means a Ki(cathepsin B)/Ki(calpain) ratio of ≧30) | + (+ means 30≦Ki(cathepsin L)/Ki(calpain)<50)
3 | NC(=O)C(=O)C(Cc1ccccc1)NC(=O)c1cccnc1-n1ccc(C2CCCCC2)n1 (stereo not shown) [Example 192, N-[3-Amino-2,3-dioxo-1-(phenylmethyl)propyl]-2-(3-cyclohexyl-1H-pyrazol-1-yl)pyridine-3-carboxamide] | + (+ means 10≦Ki(cathepsin K)/Ki(calpain)<30) | ++ (++ means a Ki(cathepsin S)/Ki(calpain) ratio of ≧100) |  | ++ (++ means a Ki(cathepsin L)/Ki(calpain) ratio of ≧50)
4 | CN1CCN(c2ccc(-c3ccn(-c4ncccc4C(=O)NC(Cc4ccccc4)C(=O)C(N)=O)n3)cc2)CC1 (stereo not shown) [Example 68, N-(3-Amino-1-benzyl-2,3-dioxopropyl)-2-{3-[4-(4-methylpiperazin-1-yl)phenyl]-1H-pyrazol-1-yl}nicotinamide] | + (+ means 10≦Ki(cathepsin K)/Ki(calpain)<30) | ++ (++ means a Ki(cathepsin S)/Ki(calpain) ratio of ≧100) |  | 
5 | N#Cc1cnc(-n2ccc(-c3ccccc3F)n2)c(C(=O)NC(Cc2ccccc2)C(=O)C(N)=O)c1 (stereo not shown) [Example 188, N-[3-Amino-2,3-dioxo-1-(phenylmethyl)propyl]-5-cyano-2-[3-(2-fluorophenyl)-1H-pyrazol-1-yl]pyridine-3-carboxamide] | ++ (++ means a Ki(cathepsin K)/Ki(calpain) ratio of ≧30) |  |  | ++ (++ means a Ki(cathepsin L)/Ki(calpain) ratio of ≧50)
6 | NC(=O)C(=O)C(Cc1ccccc1)NC(=O)c1cc(Cl)cnc1-n1ccc(-c2ccc(N3CCOCC3)cc2)n1 (stereo not shown) [Example 31, N-(3-Amino-1-benzyl-2,3-dioxopropyl)-5-chloro-2-[3-(4-morpholin-4-ylphenyl)-1H-pyrazol-1-yl]nicotinamide] | + (+ means 10≦Ki(cathepsin K)/Ki(calpain)<30) |  | ++ (++ means a Ki(cathepsin B)/Ki(calpain) ratio of ≧30) | + (+ means 30≦Ki(cathepsin L)/Ki(calpain)<50)
7 | NC(=O)C(=O)C(CC1CCCCC1)NC(=O)c1cccnc1-n1ccc(-c2ccccc2)n1 (stereo not shown) [Example 66, N-[3-Amino-1-(cyclohexylmethyl)-2,3-dioxopropyl]-2-(3-phenyl-1H-pyrazol-1-yl)nicotinamide] | + (+ means 10≦Ki(cathepsin K)/Ki(calpain)<30) | ++ (++ means a Ki(cathepsin S)/Ki(calpain) ratio of ≧100) |  | + (+ means 30≦Ki(cathepsin L)/Ki(calpain)<50)
8 | COc1ccc(OC)c(-c2ccn(-c3ncccc3C(=O)NC(Cc3ccccc3)C(=O)C(N)=O)n2)c1 (stereo not shown) [Example 151, N-[3-Amino-2,3-dioxo-1-(phenylmethyl)propyl]-2-{3-[2,5-bis(methyloxy)phenyl]-1H-pyrazol-1-yl}pyridine-3-carboxamide] | ++ (++ means a Ki(cathepsin K)/Ki(calpain) ratio of ≧30) |  | ++ (++ means a Ki(cathepsin B)/Ki(calpain) ratio of ≧30) | ++ (++ means a Ki(cathepsin L)/Ki(calpain) ratio of ≧50)
9 | Cl.NC(=O)C(=O)C(Cc1ccccc1)NC(=O)c1cccnc1-n1ccc(-c2ccc(N3CCOCC3)cc2)n1 (stereo not shown) [Example 29, N-(3-Amino-1-benzyl-2,3-dioxopropyl)-2-[3-(4-morpholin-4-ylphenyl)-1H-pyrazol-1-yl]nicotinamide hydrochloride] | + (+ means 10≦Ki(cathepsin K)/Ki(calpain)<30) | ++ (++ means a Ki(cathepsin S)/Ki(calpain) ratio of ≧100) |  | ++ (++ means a Ki(cathepsin L)/Ki(calpain) ratio of ≧50)
10 | NC(=O)C(=O)C(Cc1ccccc1)NC(=O)c1cccnc1-n1ccc(-c2ccc3c(c2)CCO3)n1 (stereo not shown) [Example 75, N-(3-Amino-1-benzyl-2,3-dioxopropyl)-2-[3-(2,3-dihydrobenzo[b]furan-5-yl)-1H-pyrazol-1-yl]nicotinamide] | + (+ means 10≦Ki(cathepsin K)/Ki(calpain)<30) | ++ (++ means a Ki(cathepsin S)/Ki(calpain) ratio of ≧100) |  | ++ (++ means a Ki(cathepsin L)/Ki(calpain) ratio of ≧50)
